ChEMBL document CHEMBL1201862, “PubChem BioAssay data set” (2004)
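Exposure lasted 48 hours, with cells grown in 96-well plates and compounds tested at five concentrations. GI50: concentration for 50% inhibition of growth.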 The source made the active and inactive calls. No stated cut-off is given here; in the data, active = GI50 up to about 1.1 µM and inactive = higher.

Legend:
Assay in all cases: NCI anticancer screen, dose series, 48 h
K562 = tested on: K562
TK-10 = tested on: TK-10
A498 = tested on: A498
U-251 = tested on: U-251
SW-620 = tested on: SW-620
Hs-578T = tested on: Hs-578T
NCI-H23 = tested on: NCI-H23
A549 = tested on: A549
HOP-92 = tested on: HOP-92
HCC 2998 = tested on: HCC 2998
SNB-75 = tested on: SNB-75
DU-145 = tested on: DU-145
HT-29 = tested on: HT-29
NCI/ADR-RES = tested on: NCI/ADR-RES
SK-MEL-5 = tested on: SK-MEL-5
MDA-N = tested on: MDA-N
HOP-62 = tested on: HOP-62
IGROV-1 = tested on: IGROV-1
UO-31 = tested on: UO-31
Malme-3M = tested on: Malme-3M

Measured: GI50

Sc1nnc(NNc2ccccc2)n1Nc1ccccc1
active: K562 0.0213 µM | SK-MEL-5 0.488 µM
inactive: TK-10 > 52.6 µM | A498 39.4 µM | U-251 21.1 µM | SW-620 28.7 µM | Hs-578T > 64.3 µM | NCI-H23 28.2 µM | A549 8.97 µM | HOP-92 25.3 µM | HCC 2998 1.78 µM | SNB-75 > 44.7 µM | DU-145 > 79.4 µM | HT-29 4.76 µM | NCI/ADR-RES 34.3 µM | MDA-N 2.05 µM | HOP-62 64.3 µM | IGROV-1 19.8 µM

CC(=O)OCCc1cc2ccccc2oc1=O
inactive: K562 > 100 µM | A498 > 100 µM | U-251 > 100 µM | SW-620 > 100 µM | Hs-578T > 100 µM | NCI-H23 > 100 µM | A549 > 100 µM | HOP-92 > 100 µM | HCC 2998 > 100 µM | SNB-75 > 100 µM | DU-145 > 100 µM | HT-29 > 100 µM | UO-31 > 100 µM | NCI/ADR-RES > 100 µM | SK-MEL-5 > 100 µM | Malme-3M > 100 µM | MDA-N > 100 µM | HOP-62 > 100 µM | IGROV-1 > 100 µM

O=[N+]([O-])c1cccc(-c2csc(N/N=C3\NC/C(=C/c4ccc5c(c4)OCO5)S3)n2)c1
inactive: K562 38.3 µM | TK-10 32.2 µM | A498 15.2 µM | U-251 33.4 µM | SW-620 34 µM | Hs-578T 24.2 µM | NCI-H23 20.1 µM | A549 39.4 µM | HOP-92 16.1 µM | HCC 2998 31.9 µM | SNB-75 15.4 µM | DU-145 33.8 µM | HT-29 22.4 µM | UO-31 25.9 µM | NCI/ADR-RES 19.6 µM | SK-MEL-5 17.3 µM | MDA-N 30.4 µM | HOP-62 25.2 µM | IGROV-1 21 µM

CCc1cccc(C(C)(C)C)c1NC(=S)N/C=C(/C#N)C(N)=O
inactive: K562 > 100 µM | A498 > 100 µM | U-251 > 100 µM | SW-620 > 100 µM | Hs-578T 83 µM | NCI-H23 > 100 µM | A549 > 100 µM | HOP-92 14 µM | HCC 2998 > 100 µM | SNB-75 30.9 µM | DU-145 > 100 µM | HT-29 > 100 µM | UO-31 31.3 µM | NCI/ADR-RES > 100 µM | SK-MEL-5 > 100 µM | Malme-3M > 100 µM | MDA-N > 100 µM | HOP-62 > 100 µM | IGROV-1 > 100 µM

COC1(OC)CCCc2c1no[n+]2[O-]
inactive: K562 > 100 µM | TK-10 > 100 µM | A498 > 100 µM | U-251 > 100 µM | SW-620 > 100 µM | Hs-578T > 100 µM | NCI-H23 > 100 µM | A549 > 100 µM | HCC 2998 > 100 µM | SNB-75 79.4 µM | DU-145 > 100 µM | HT-29 > 100 µM | UO-31 > 100 µM | NCI/ADR-RES > 100 µM | SK-MEL-5 > 100 µM | Malme-3M > 100 µM | MDA-N > 100 µM | HOP-62 > 100 µM | IGROV-1 > 100 µM

CC[N+](C)(CC)Cc1ccccc1[N+](=O)[O-]
inactive: K562 > 100 µM | TK-10 > 100 µM | A498 41.2 µM | U-251 53.7 µM | SW-620 87.7 µM | Hs-578T > 100 µM | NCI-H23 > 100 µM | A549 > 100 µM | HOP-92 > 100 µM | SNB-75 > 100 µM | DU-145 > 100 µM | HT-29 36.1 µM | UO-31 > 100 µM | NCI/ADR-RES > 100 µM | SK-MEL-5 > 100 µM | Malme-3M > 100 µM | MDA-N > 100 µM | HOP-62 48.4 µM | IGROV-1 > 100 µM

C[Si](C)(C)OC1c2[nH]c3ccccc3c2CN2C(=O)CCC12 (configuration not stated)
inactive: K562 > 100 µM | TK-10 > 100 µM | A498 > 100 µM | U-251 > 100 µM | SW-620 > 100 µM | Hs-578T > 100 µM | A549 > 100 µM | HOP-92 > 100 µM | HCC 2998 > 100 µM | SNB-75 > 100 µM | DU-145 > 100 µM | HT-29 > 100 µM | UO-31 > 100 µM | NCI/ADR-RES > 100 µM | SK-MEL-5 > 100 µM | MDA-N > 100 µM | HOP-62 > 100 µM | IGROV-1 > 100 µM

O=C1C=CC(=O)c2c1ccc1c3ccccc3n(-c3ccccc3[N+](=O)[O-])c21
active: K562 0.828 µM
inactive: TK-10 2.44 µM | A498 20.7 µM | U-251 4.59 µM | SW-620 1.98 µM | Hs-578T 10.7 µM | NCI-H23 4.55 µM | A549 21.7 µM | HCC 2998 3.42 µM | SNB-75 13.9 µM | DU-145 4.68 µM | HT-29 5.2 µM | UO-31 1.44 µM | NCI/ADR-RES 5.05 µM | SK-MEL-5 6.89 µM | Malme-3M 2.17 µM | MDA-N 3.04 µM | HOP-62 18.6 µM | IGROV-1 1.94 µM

O=c1[nH]c2ccccc2c2nc3ccccc3n12
active: IGROV-1 0.61 µM
inactive: K562 > 100 µM | TK-10 6.75 µM | A498 > 100 µM | U-251 46.1 µM | SW-620 61.2 µM | Hs-578T 65.6 µM | NCI-H23 42.5 µM | A549 33.2 µM | HOP-92 13.9 µM | HCC 2998 27.9 µM | DU-145 > 100 µM | HT-29 49.5 µM | UO-31 8.49 µM | NCI/ADR-RES 81.1 µM | SK-MEL-5 19.5 µM | Malme-3M 13.1 µM | MDA-N > 100 µM | HOP-62 38.1 µM

CCOP(=O)(OCC)C(C(=O)OC)C(=O)C(=O)Nc1cccc(O)c1 (configuration not stated)
inactive: TK-10 > 100 µM | A498 > 100 µM | U-251 > 100 µM | SW-620 > 100 µM | Hs-578T > 100 µM | NCI-H23 > 100 µM | A549 > 100 µM | HOP-92 > 100 µM | HCC 2998 > 100 µM | SNB-75 > 100 µM | DU-145 > 100 µM | HT-29 > 100 µM | UO-31 > 100 µM | NCI/ADR-RES > 100 µM | SK-MEL-5 > 100 µM | Malme-3M > 100 µM | MDA-N > 100 µM | HOP-62 > 100 µM | IGROV-1 > 100 µM

CC(=O)OCC1OC(Nn2c(=O)[nH]c3ccccc3c2=O)C(OC(C)=O)C(OC(C)=O)C1OC(C)=O (configuration not stated)
inactive: K562 > 100 µM | A498 > 100 µM | U-251 > 100 µM | SW-620 > 100 µM | Hs-578T > 100 µM | NCI-H23 > 100 µM | A549 > 100 µM | HOP-92 89.1 µM | HCC 2998 15 µM | SNB-75 > 100 µM | DU-145 > 100 µM | HT-29 > 100 µM | UO-31 70.3 µM | NCI/ADR-RES > 100 µM | SK-MEL-5 > 100 µM | Malme-3M > 100 µM | MDA-N > 100 µM | HOP-62 > 100 µM | IGROV-1 > 100 µM

COC(=O)/C=C/c1cc(O)c2c(c1)[C@H](C(=O)OC)[C@@H](c1ccc(O)c(O)c1)O2
active: K562 0.0306 µM | U-251 0.0664 µM | SW-620 0.0428 µM | Hs-578T 0.046 µM | NCI-H23 0.342 µM | A549 0.877 µM | SNB-75 0.0195 µM | DU-145 0.273 µM | UO-31 0.189 µM | NCI/ADR-RES 0.158 µM | SK-MEL-5 0.0335 µM | MDA-N 0.0122 µM | HOP-62 0.333 µM | IGROV-1 0.221 µM
inactive: TK-10 24.7 µM | A498 6.82 µM | HOP-92 9.89 µM | HCC 2998 19.2 µM | HT-29 3.16 µM

CN1c2ccccc2S(=O)(=O)n2c(CCc3ccccc3)nnc21
inactive: K562 > 100 µM | TK-10 > 100 µM | A498 39.1 µM | U-251 > 100 µM | SW-620 > 100 µM | Hs-578T 79.4 µM | NCI-H23 > 100 µM | A549 > 100 µM | HOP-92 37.8 µM | HCC 2998 > 100 µM | DU-145 > 100 µM | HT-29 > 100 µM | UO-31 > 100 µM | NCI/ADR-RES > 100 µM | SK-MEL-5 > 100 µM | MDA-N > 100 µM | HOP-62 41.2 µM | IGROV-1 > 100 µM

CCOC(=O)CCC(C(=O)OCC)n1nnc2cc(Nc3c(C)[n+]([O-])c4cc(F)c(OCC)cc4[n+]3[O-])ccc21 (configuration not stated)
inactive: K562 > 100 µM | TK-10 48.3 µM | A498 > 100 µM | U-251 30.7 µM | SW-620 > 100 µM | Hs-578T 30.3 µM | NCI-H23 67.8 µM | A549 > 100 µM | HOP-92 25.6 µM | SNB-75 37.4 µM | DU-145 > 100 µM | HT-29 > 100 µM | UO-31 > 100 µM | NCI/ADR-RES > 100 µM | SK-MEL-5 > 100 µM | Malme-3M > 100 µM | MDA-N > 100 µM | HOP-62 22.2 µM | IGROV-1 > 100 µM

c1ccc(CC2(c3cc4ccccc4[nH]3)OCCO2)nc1
inactive: K562 50.2 µM | TK-10 > 100 µM | A498 > 100 µM | U-251 > 100 µM | SW-620 > 100 µM | Hs-578T 51.5 µM | NCI-H23 > 100 µM | A549 > 100 µM | HOP-92 > 100 µM | SNB-75 12.1 µM | DU-145 > 100 µM | HT-29 > 100 µM | UO-31 > 100 µM | NCI/ADR-RES > 100 µM | SK-MEL-5 > 100 µM | Malme-3M 47.6 µM | MDA-N > 100 µM | HOP-62 > 100 µM | IGROV-1 1.95 µM
